Tests used:
[1] = Pigment/powder dispersion: increase in viscosity of the oil (Brookfield); format: physicochemical; conditions: for Increase in viscosity: 60% emollient + 40% pigment/powder mixture (Table 2), Brookfield, spindle 5, 50 rpm at 20° C.; for dispersibility of the pigment/powder mixture in the oil: judged from the increase in viscosity
Text: Alkyl carboxylates according to the invention can help in the wetting of hydrophobized pigments and accordingly can be widely used in coloured cosmetics. The pigment wetting properties of cosmetic oils can be determined by measuring the viscosity of the pure oil, in comparison with the viscosity of the oil after dispersing a defined amount of pigments. The smaller the increase in viscosity thus determined, the better the property of an oil in wetting pigments on the surface and accordingly in dispersing.
The viscosities of the oils before addition of the pigment/powder mixture are determined using a Brookfield viscometer, spindle 5, 50 rpm at 20° C. After dispersion of the pigment/powder mixture, the viscosity is again determined in an identical way.

[2] = Mixtures of pure pigments with cosmetic oil: increase in viscosity (rheometer); format: physicochemical; conditions: for dispersibility of pure pigments in the oil: judged from the increase in viscosity; for Increase in viscosity, Carbon Black (CI77266, UniPure Black LC 902, Sensient): pigment:oil 15:85 w/w; for Increase in viscosity, Carbon Black (CI77266, UniPure Black LC 902, Sensient) / Increase in viscosity, (Yellow) Iron Oxide (CI 77492); Dimethicone (BYO-DS4, KOBO) / Increase in viscosity, (Black) Iron Oxides (CI 77499); Dimethicone (BYO-DS3, KOBO) / Increase in viscosity, Titanium Dioxide (CI 77891); Dimethicone (DHL-TRI-77891, US Cosmetics) / Increase in viscosity, (Red) Iron Oxides (CI 77491); Dimethicone (BYO-DS3, KOBO): rheometer MCR 302, 20° C., 1/100 sec, triplicate averaged; for Increase in viscosity, (Yellow) Iron Oxide (CI 77492); Dimethicone (BYO-DS4, KOBO): pigment:oil 40:60 w/w; for Increase in viscosity, (Black) Iron Oxides (CI 77499); Dimethicone (BYO-DS3, KOBO) / Increase in viscosity, Titanium Dioxide (CI 77891); Dimethicone (DHL-TRI-77891, US Cosmetics): pigment:oil 60:40 w/w; for Increase in viscosity, (Red) Iron Oxides (CI 77491); Dimethicone (BYO-DS3, KOBO): pigment:oil 65:35 w/w
Experimental: Here too, the pigment wetting properties of cosmetic oils can be determined by measuring the viscosity of the pure oil, in comparison with the viscosity of the oil after dispersing a defined amount of the pure pigment. The smaller the increase in viscosity thus determined, the better the property of an oil in wetting pigments on the surface and accordingly in dispersing.
The mixture is then stirred for 3 min at 3,500 rpm's and placed onto rheometer for measurement (Anton Paar Modular Compact Rheometer model MCR 302, 20° C., 1/100 sec). The viscosities of the neat cosmetics oils are also measured. Pigment mixtures and neat cosmetic oils are run in triplicate and the results averaged.
The increase in viscosity comparing the neat cosmetic oil and the pigment/cosmetic oil mixture is represented below (given in mPa·s): […]

SMILES	Increase in viscosity [1] [mPa · s]	dispersibility of the pigment/powder mixture in the oil [1]	dispersibility of pure pigments in the oil [2]	Increase in viscosity, Carbon Black (CI77266, UniPure Black LC 902, Sensient) [2] [mPa·s]	Increase in viscosity, (Yellow) Iron Oxide (CI 77492); Dimethicone (BYO-DS4, KOBO) [2] [mPa·s]	Increase in viscosity, (Black) Iron Oxides (CI 77499); Dimethicone (BYO-DS3, KOBO) [2] [mPa·s]	Increase in viscosity, Titanium Dioxide (CI 77891); Dimethicone (DHL-TRI-77891, US Cosmetics) [2] [mPa·s]	Increase in viscosity, (Red) Iron Oxides (CI 77491); Dimethicone (BYO-DS3, KOBO) [2] [mPa·s]
CCCCCCCCCCCCCCCCOC(=O)C(CC)CCCC (stereo not shown) [Cetyl Ethylhexanoate]	2520	improved	improved	625	2357	8718	807	5393
CCCCCCCCCCCC(=O)OCCC(C)C [Dermofeel ® sensolv, Isoamyl Laurate]	1820	improved	improved	223	195	458	121	2238

Reference: US12691046B2, “Ester compositions” (Evonik Operations GmbH, priority 2021, dated 2026)
